Laboratory results from patent US20100068816A1, “Genetically engineered herbicide resistance for maintaining axenic cultures” (TransAlgae Ltd, priority 2008, published 2010).

Experiments:
[1] = system: zooplankton (e.g. Arthemia sp.); assay: Zooplankton survivorship under CO2 and herbicide treatment; assay type: in vivo; settings: microtubule-inhibiting herbicides
Procedure: (§1) To quantify CO2 effects on plankton survivorship we incubate 81 L vessels of the algae Pavlova lutheri, Isochrysis CS-177, Nannochloropsis oculata CS-179, Nannochloropsis like CS-246, Nannochloropsis salina CS-190, Tetraselmis suecica, Tetraselmis chuii and Nannochloris sp or cyanobacteria Synechococcus PCC7002, Synechococcus WH-7803, Thermosynechococcus elongatus BP-1 with or without zooplankton (e.g. Arthemia sp.). The control and zooplankton treated containers are bubbled with air, 1%, 5% and 14% CO2 together with specific herbicides that are applied at the appropriate concentrations. Algal cell density and zooplankton counts are done on each treatment over a 10 day period. Throughout the experiment pH is maintained at 7.0-8.0, which allows phytoplankton growth.

[2] = system: wild type algae and the cyanobacteria; assay: Effect of microtubule-inhibiting herbicides on wild type algae and cyanobacteria
Procedure: as §1

[3] = system: Nannochloropsis cells transformed with pSI103-PDS; assay: Cross resistance of Nannochloropsis cells transformed with pSI103-PDS; assay type: cell-based, Nannochloropsis oculata; settings: Nannochloropsis transformants selected on ASW + 1 μM flurochloridone
Procedure: FIG. 3. Nannochloropsis cells were transformed with the pSI103-PDS construct (right panel) as well as control cells which were not transformed with DNA (left panel) plated on artificial sea water (ASW)+1 μM flurochloridone.
Nannochloropsis oculata CS179 cells were transformed with the PSI103-PDS construct using the ECM 830 electroporator (BTX Instrument Division, Harvard Apparatus, Inc., Holliston, Mass., USA) as described above. After transformation algae were plated on ASW+F/2 media (http://www.marine.csiro.au/microalgae/methods/) containing 10^−7M flurochloridone. After two weeks, algal colonies both from the transformation and the mock were replated on ASW+10^−6M flurochloridone plates. This allowed differentiation between false positives and true resistant clones (FIG. 3). This material was used in Example 4.

[4] = system: resistant pds transformed algae; assay: Slow released herbicide embedded in photobioreactor lining: resistant transformed algae; assay type: cell-based; settings: herbicide on inner side of photobioreactor, final concentration 10^−5 to 10^−7M if fully released
From the text: (§2) A hydrophobic herbicide/biocide such as flurochloridone or fluridone and/or butafenacil flumioxazin is/are applied using a volatile organic solvent such as xylene on the inner side of the polyethylene algae photobioreactor or pond liner, such that if it were fully released into the subsequent growth medium the concentration would reach a final concentration of 10^−5 to 10^−7M. Transgenically resistant algae or cyanobacteria versus wild-type are inoculated in the treated photobioreactors after the solvent has evaporated. In commercial production, the herbicides can be added during production of the polyethyelene.
(§3) Culture aliquots are removed daily and cell densities of wild types and the transformed algae or cyanobacteria are compared.

[5] = system: Chlamydomonas pds transformants; assay: Contamination test: Chlamydomonas pds transformant alone and in mixed culture, with and without flurochloridone; assay type: cell-based, Chlamydomonas reinhardtii; settings: flurochloridone addition; liquid medium, one week, daily counts under the microscope; mixed culture 10:1
From the text: (§4) FIGS. 8A and B: Contamination test of Chlamydomonas pds transformant II5 versus the cyanobacterium Synechococcus PCC 7942. Chlamydomonas transformants and the cyanobacterium Synechococcus PCC7942 were inoculated alone and in mixed culture in a ratio of 10:1 with and without flurochloridone. Aliquots were removed daily and counted under the microscope. 8A represents the Chlamydomonas pds transformants counts and 8B represents the cyanobacterium Synechococcus PCC7942 counts.
(§5) To address the question of contaminants, the Chlamydomonas pds transformants were mixed with the cyanobacterium Synechococcus PCC7942, which is known to overtake ponds. A Chlamydomonas pds transformant and the cyanobacterium Synechococcus PCC7942 were inoculated alone and in mixed cultures with and without flurochloridone. The mixed culture was inoculated in a ratio of 10:1 Chlamydomonas pds transformants: Synechococcus PCC7942 wild type, respectively. The cells were allowed to grow for one week in liquid medium, with daily removal of aliquots. Contaminants versus target Chlamydomonas-cells were counted under the microscope (FIG. 8).

Synechococcus PCC7942 = assay: Contamination test: Synechococcus PCC7942 alone and in mixed culture, with and without flurochloridone; assay type: cell-based; settings: flurochloridone addition; liquid medium, one week, daily counts under the microscope; mixed culture 10:1
From the text: as §4, §5

wild type culture = assay: Slow released herbicide embedded in photobioreactor lining: wild type culture; assay type: cell-based; settings: herbicide on inner side of photobioreactor, final concentration 10^−5 to 10^−7M if fully released
From the text: as §2, §3

ppo transformant algae = assay: Dose response of ppo transformants versus wild type alga; assay type: cell-based; settings: 0.1 μM, 0.3 μM, 0.5 μM in 24 well plates
Procedure: A dose response curve is generated for the wild type alga and for the transformants. The wild types and the transformant algae are plated in their medium in 24 well plates with increasing concentrations of 0.1 μM, 0.3 μM, 0.5 μM butafenacil or flumioxazin. Algae are plated without the herbicide as a control. […] The most resistant colonies are chosen for further analysis.

wild-type algae = assay: Butafenacil dose response on wild type algae and cyanobacteria (FIG. 11); assay type: cell-based; settings: 10^−6M or 10^−7M
Procedure: FIG. 11 A Chemical structure of butafenacil. B. Butafenacil dose response on wild type algae and cyanobacteria. Strains were cultured at OD648=0.1 in 24 well plate and butafencil was applied at concentrations of 10^−5,6,7M. After a week OD648 of the cultures was measured.
Cells are allowed to generate to visible colonies. After incubation for a week the most resistant colonies are chosen. To ascertain gene transformation PCR analysis is preformed on wild type and butafenacil or flumioxazin resistant colonies.

[6] = system: Synechococcus PCC7002 and Synechococcus WH7803; assay: Mixed culture of ppo transformed algae and cyanobacteria contaminants, with and without herbicide; assay type: cell-based; settings: mixed culture 10:1 transformant:cyanobacteria, one week liquid culture
Procedure: To address the question of contaminants, the transformed algae are mixed with cyanobacteria such as Synechococcus PCC7002 and Synechococcus WH7803, which are known to overtake ponds. The transformant and the cyanobacteria are cultured alone and in mixed cultures with and without butafenacil or flumioxazin. The mixed culture is plated in a ratio of 10:1 transformant: cyanobacteria respectively. The cells are allowed to grow for one week in liquid culture, with daily removal of aliquots. These aliquots are counted under the microscope and the ratio of contaminants vs. algae is calculated.

Hydrilla verticillata = settings: cited from earlier work

Compound | effect on zooplankton [1] | effect on wild type algae and cyanobacteria [2] | further results
C=C(C)CN(CC)c1c([N+](=O)[O-])cc(C(F)(F)F)cc1[N+](=O)[O-] [ethalfluralin] | killed | do not harm | 
CCCN(CCC)c1c([N+](=O)[O-])cc(C(F)(F)F)cc1[N+](=O)[O-] [trifluralin] | killed | do not harm | 
O=C(Nc1ccc(F)cc1)c1cccc(Oc2cccc(C(F)(F)F)c2)n1 [picolinafen] |  |  | cross resistance of the flurochloridone resistant material [3]: cross resistant
CCC(CC)Nc1c([N+](=O)[O-])cc(C)c(C)c1[N+](=O)[O-] [pendimethalin] | killed | do not harm | 
CCN(CC)c1c([N+](=O)[O-])cc(C(F)(F)F)c(N)c1[N+](=O)[O-] [dinitramine] | killed | do not harm | 
C#CC(C)(C)NC(=O)c1cc(Cl)cc(Cl)c1 [propyzamide] | killed | do not harm | 
CNc1cnn(-c2cccc(C(F)(F)F)c2)c(=O)c1Cl [norflurazon] |  |  | cross resistance of the flurochloridone resistant material [3]: cross resistant
O=C1C(Cl)C(CCl)CN1c1cccc(C(F)(F)F)c1 (stereo not shown) [flurochloridone] |  |  | growth of the resistant pds transformed algae [4]: unaffected; growth of the resistant pds Chlamydomonas cells [5]: unaffected; growth of Synechococcus PCC7942 cells (Synechococcus PCC7942): completely inhibited; growth of the wild type culture (wild type culture): completely inhibited
CSC(=O)c1c(C(F)F)nc(C(F)(F)F)c(C(=O)SC)c1CC(C)C [dithiopyr] | killed | do not harm | 
C#CCN1C(=O)COc2cc(F)c(N3C(=O)C4=C(CCCC4)C3=O)cc21 [flumioxazin] |  |  | growth of transformants bearing the resistance gene in dose response (ppo transformant algae): ability to grow at higher concentrations than the wild type; wild-type algae growth (wild-type algae): inhibit; growth of the resistant pds transformed algae [4]: unaffected; contaminants in mixed cultures containing the herbicide [6]: decreasing numbers of contaminants; growth of the wild type culture (wild type culture): completely inhibited
CCC(C)Nc1c([N+](=O)[O-])cc(C(C)(C)C)cc1[N+](=O)[O-] (stereo not shown) [butralin] | killed | do not harm | 
COP(=S)(NC(C)C)Oc1ccc(C)cc1[N+](=O)[O-] (stereo not shown) [amiprophos-methyl] | killed | do not harm | 
C=CCOC(=O)C(C)(C)OC(=O)c1cc(-n2c(=O)cc(C(F)(F)F)n(C)c2=O)ccc1Cl [butafenacil] |  |  | growth of transformants bearing the resistance gene in dose response (ppo transformant algae): ability to grow at higher concentrations than the wild type; wild-type algae growth (wild-type algae): inhibit; growth of the resistant pds transformed algae [4]: unaffected; contaminants in mixed cultures containing the herbicide [6]: decreasing numbers of contaminants; growth of the wild type culture (wild type culture): completely inhibited
COC(=O)c1c(Cl)c(Cl)c(C(=O)OC)c(Cl)c1Cl [chlorthal-dimethyl] | killed | do not harm | 
CCOP(=S)(NC(C)CC)Oc1cc(C)ccc1[N+](=O)[O-] (stereo not shown) [butamiphos] | killed | do not harm | 
fluridone |  |  | cross resistance of the flurochloridone resistant material [3]: cross resistant; growth of the resistant pds transformed algae [4]: unaffected; biomass accumulation, of the content in untreated plants (Hydrilla verticillata; fluridone resistant biotypes): up to 72%; β-carotene accumulation, of the content in untreated plants (Hydrilla verticillata; fluridone resistant biotypes): ≤ 77%; biomass accumulation, of the levels found in untreated plants (Hydrilla verticillata; susceptible population): 10%; β-carotene accumulation, of the levels found in untreated plants (Hydrilla verticillata; susceptible population): 10%; growth of the wild type culture (wild type culture): completely inhibited
CCCCN(CC)c1c([N+](=O)[O-])cc(C(F)(F)F)cc1[N+](=O)[O-] [benefin] | killed | do not harm | 
COC(=O)c1c(C(F)F)nc(C(F)(F)F)c(C2=NCCS2)c1CC(C)C [thiazopyr] | killed | do not harm | 
CC(C)N(Cc1ccccc1)C(=O)C(C)(C)C [tebutam] | killed | do not harm | 
